Experimental data: patent publication US7632933B2, “Corticotropin releasing factor 2 receptor agonists” (priority 2002, dated 2009)
Peptide text beside a SMILES is read from it.

Tests used:
CRF2R = molecular target: T1, CRF2R (Homo sapiens, UniProt Q13324); assay: CRF2R agonist activity (EC50 and Emax), called comparative CRF binding; assay type: cell-based; conditions: CRF2R; read-out: CRF2R EC50
T1 sequence (Q13324 1-411): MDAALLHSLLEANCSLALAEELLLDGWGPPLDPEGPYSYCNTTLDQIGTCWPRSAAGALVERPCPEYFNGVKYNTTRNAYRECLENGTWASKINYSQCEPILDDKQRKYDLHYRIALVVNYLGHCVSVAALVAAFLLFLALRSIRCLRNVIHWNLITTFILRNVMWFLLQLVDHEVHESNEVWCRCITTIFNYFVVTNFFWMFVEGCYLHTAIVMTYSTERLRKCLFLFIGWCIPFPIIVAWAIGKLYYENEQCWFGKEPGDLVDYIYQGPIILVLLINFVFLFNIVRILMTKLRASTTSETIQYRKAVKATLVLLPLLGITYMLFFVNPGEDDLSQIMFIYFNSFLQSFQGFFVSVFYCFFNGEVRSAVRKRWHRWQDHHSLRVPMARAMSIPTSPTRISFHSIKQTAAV
Outline: (§1)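 Agonism measured through CRE-linked reporter expression or lysate cAMP after peptide treatment of CRF1R- or CRF2R-expressing cells, compared against vehicle-treated cells; background from a co-expressed non-target CRFR is subtracted.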

CRF1R = molecular target: T2, CRF1R (Homo sapiens, UniProt P34998); assay: CRF1R agonist activity (EC50 and Emax), called comparative CRF binding; assay type: cell-based; conditions: CRF1R; read-out: CRF1R EC50
T2 sequence (P34998 24-415): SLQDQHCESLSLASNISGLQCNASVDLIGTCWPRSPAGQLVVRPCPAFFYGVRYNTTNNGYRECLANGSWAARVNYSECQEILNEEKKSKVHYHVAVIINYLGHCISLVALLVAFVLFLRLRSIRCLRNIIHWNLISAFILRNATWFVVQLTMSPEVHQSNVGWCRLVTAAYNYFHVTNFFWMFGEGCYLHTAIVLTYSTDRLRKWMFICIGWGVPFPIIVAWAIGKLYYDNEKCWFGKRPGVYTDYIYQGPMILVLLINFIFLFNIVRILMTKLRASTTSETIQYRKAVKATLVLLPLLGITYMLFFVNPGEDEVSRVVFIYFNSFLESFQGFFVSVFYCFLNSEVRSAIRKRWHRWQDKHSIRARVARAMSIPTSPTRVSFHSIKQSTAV
Outline: as §1

## CC[C@H](C)[C@H](NC(=O)[C@H](C)NC(=O)[C@H](CC(N)=O)NC(=O)[C@H](CCC(N)=O)NC(=O)[C@H](CCC(=O)O)NC(=O)[C@H](C)NC(=O)[C@H](CCCNC(=N)N)NC(=O)[C@H](CCC(=O)O)NC(=O)[C@H](CCCNC(=N)N)NC(=O)[C@H](CCC(N)=O)NC(=O)[C@H](CO)NC(=O)[C@H](CCC(N)=O)NC(=O)[C@@H](NC(=O)[C@H](CCCNC(=N)N)NC(=O)[C@H](C)NC(=O)[C@H](CC(C)C)NC(=O)[C@H](CCC(=O)O)NC(=O)[C@H](CC(C)C)NC(=O)[C@H](CC(C)C)NC(=O)[C@@H](NC(=O)[C@H](CCCNC(=N)N)NC(=O)[C@H](CC(C)C)NC(=O)[C@H](CC(C)C)NC(=O)[C@H](Cc1ccc(O)cc1)NC(=O)[C@@H](NC(=O)[C@@H]1CCCN1C(=O)[C@H](CC(C)C)NC(=O)[C@H](CC(=O)O)NC(=O)[C@@H](NC(=O)[C@H](CO)NC(=O)[C@H](CC(C)C)NC(=O)[C@H](CO)NC(=O)[C@@H]1CCCN1C(=O)[C@H](CC(N)=O)NC(=O)[C@@H](N)CC(=O)O)[C@@H](C)CC)[C@@H](C)O)[C@@H](C)O)[C@@H](C)O)C(=O)N[C@H](C(=O)N[C@@H](Cc1ccccc1)C(=O)N[C@@H](C)C(=O)N[C@@H](CO)C(=O)N[C@H](C(N)=O)C(C)C)[C@@H](C)CC [compound 173] (H-DNPSLSIDLPTYLLRTLLELARTQSQRERAEQNAIIFASV-NH2)
CRF2R
  EC50: ≥ 100 nM
CRF1R
  EC50: ≥ 1000 nM

## CC[C@H](C)[C@H](NC(=O)[C@H](C)NC(=O)[C@H](CC(N)=O)NC(=O)[C@H](CCC(N)=O)NC(=O)[C@H](CCC(=O)O)NC(=O)[C@H](C)NC(=O)[C@H](CCCNC(=N)N)NC(=O)[C@H](CCC(=O)O)NC(=O)[C@H](CCCNC(=N)N)NC(=O)[C@H](CCC(N)=O)NC(=O)[C@H](CO)NC(=O)[C@H](CCC(N)=O)NC(=O)[C@@H](NC(=O)[C@H](CCCNC(=N)N)NC(=O)[C@H](C)NC(=O)[C@H](CC(C)C)NC(=O)[C@H](CCC(=O)O)NC(=O)[C@H](CC(C)C)NC(=O)[C@H](CC(C)C)NC(=O)[C@@H](NC(=O)[C@H](CCCNC(=N)N)NC(=O)[C@H](CC(C)C)NC(=O)[C@H](CC(C)C)NC(=O)[C@H](Cc1ccccc1)NC(=O)[C@H](Cc1ccccc1)NC(=O)[C@@H]1CCCN1C(=O)[C@H](CC(C)C)NC(=O)[C@H](CC(=O)O)NC(=O)[C@@H](NC(=O)[C@H](CO)NC(=O)[C@H](CC(C)C)NC(=O)[C@H](CO)NC(=O)[C@@H]1CCCN1C(=O)[C@H](CC(N)=O)NC(=O)[C@@H](N)CC(=O)O)[C@@H](C)CC)[C@@H](C)O)[C@@H](C)O)C(=O)N[C@H](C(=O)N[C@@H](Cc1ccccc1)C(=O)N[C@@H](C)C(=O)N[C@@H](CO)C(=O)N[C@H](C(N)=O)C(C)C)[C@@H](C)CC [compound 184] (H-DNPSLSIDLPFFLLRTLLELARTQSQRERAEQNAIIFASV-NH2; N-terminus assumed)
CRF2R
  EC50: 3.72 nM
CRF1R
  EC50: 486 nM

## CC[C@H](C)[C@H](NC(=O)[C@H](C)NC(=O)[C@H](CC(N)=O)NC(=O)[C@H](CCC(N)=O)NC(=O)[C@H](CCC(=O)O)NC(=O)[C@H](C)NC(=O)[C@H](CCCNC(=N)N)NC(=O)[C@H](CCC(=O)O)NC(=O)[C@H](CCCNC(=N)N)NC(=O)[C@H](CCC(N)=O)NC(=O)[C@H](CO)NC(=O)[C@H](CCC(N)=O)NC(=O)[C@@H](NC(=O)[C@H](CCCNC(=N)N)NC(=O)[C@H](C)NC(=O)[C@H](CC(C)C)NC(=O)[C@H](CCC(=O)O)NC(=O)[C@H](CC(C)C)NC(=O)[C@H](CC(C)C)NC(=O)[C@@H](NC(=O)[C@H](CCCNC(=N)N)NC(=O)[C@H](CC(C)C)NC(=O)[C@H](CC(C)C)NC(=O)[C@H](Cc1ccc(O)cc1)NC(=O)[C@H](CCC(N)=O)NC(=O)[C@@H]1CCCN1C(=O)[C@H](CC(C)C)NC(=O)[C@H](CC(=O)O)NC(=O)[C@@H](NC(=O)[C@H](CO)NC(=O)[C@H](CC(C)C)NC(=O)[C@H](CO)NC(=O)[C@@H]1CCCN1C(=O)[C@H](CC(N)=O)NC(=O)[C@@H](N)CC(=O)O)[C@@H](C)CC)[C@@H](C)O)[C@@H](C)O)C(=O)N[C@H](C(=O)N[C@@H](Cc1ccccc1)C(=O)N[C@@H](C)C(=O)N[C@@H](CO)C(=O)N[C@H](C(N)=O)C(C)C)[C@@H](C)CC [compound 339] (H-DNPSLSIDLPQYLLRTLLELARTQSQRERAEQNAIIFASV-NH2)
CRF2R
  EC50: ≥ 100 nM
CRF1R
  EC50: ≥ 1000 nM

## CC[C@H](C)[C@H](NC(=O)[C@H](C)NC(=O)[C@H](CC(N)=O)NC(=O)[C@H](CCC(N)=O)NC(=O)[C@H](CCC(=O)O)NC(=O)[C@H](C)NC(=O)[C@H](CCCNC(=N)N)NC(=O)[C@H](CCC(=O)O)NC(=O)[C@H](CCCNC(=N)N)NC(=O)[C@H](CCC(N)=O)NC(=O)[C@H](CO)NC(=O)[C@H](CCC(N)=O)NC(=O)[C@@H](NC(=O)[C@H](CCCCN)NC(=O)[C@H](CCC(=O)O)NC(=O)[C@H](CC(C)C)NC(=O)[C@H](CCC(=O)O)NC(=O)[C@H](CC(C)C)NC(=O)[C@H](CC(C)C)NC(=O)[C@@H](NC(=O)[C@H](CCCNC(=N)N)NC(=O)[C@H](CC(C)C)NC(=O)[C@H](CC(C)C)NC(=O)[C@H](CCC(N)=O)NC(=O)[C@H](CC(C)C)NC(=O)[C@@H]1CCCN1C(=O)[C@H](CC(C)C)NC(=O)[C@H](CC(=O)O)NC(=O)[C@@H](NC(=O)[C@H](CO)NC(=O)[C@H](CC(C)C)NC(=O)[C@H](CO)NC(=O)[C@@H]1CCCN1C(=O)[C@H](CC(N)=O)NC(=O)[C@@H](N)CC(=O)O)[C@@H](C)CC)[C@@H](C)O)[C@@H](C)O)C(=O)N[C@H](C(=O)N[C@@H](Cc1ccccc1)C(=O)N[C@@H](C)C(=O)N[C@@H](CO)C(=O)N[C@H](C(N)=O)C(C)C)[C@@H](C)CC [compound 342] (H-DNPSLSIDLPLQLLRTLLELEKTQSQRERAEQNAIIFASV-NH2; N-terminus assumed)
CRF2R
  EC50: 20.3 nM
CRF1R
  EC50: ≥ 1000 nM

## CC[C@H](C)[C@H](N)C(=O)N[C@H](C(=O)N[C@@H](CC(C)C)C(=O)N[C@@H](CO)C(=O)N[C@@H](CC(C)C)C(=O)N[C@@H](CC(=O)O)C(=O)N[C@H](C(=O)N1CCC[C@H]1C(=O)N[C@H](C(=O)NCC(=O)N[C@@H](CC(C)C)C(=O)N[C@@H](CC(C)C)C(=O)N[C@@H](CCC(N)=O)C(=O)N[C@H](C(=O)N[C@@H](CC(C)C)C(=O)N[C@@H](CC(C)C)C(=O)N[C@@H](CCC(=O)O)C(=O)N[C@@H](CCCCN)C(=O)N[C@@H](C)C(=O)N[C@@H](C)C(=O)N[C@@H](C)C(=O)N[C@@H](CCC(=O)O)C(=O)N[C@@H](C)C(=O)N[C@@H](CCC(=O)O)C(=O)N[C@@H](C)C(=O)N[C@@H](C)C(=O)N[C@@H](C)C(=O)N[C@@H](CCCCN)C(=O)N[C@@H](C)C(=O)N[C@@H](C)C(=O)N[C@@H](CCC(N)=O)C(=O)N[C@@H](CCC(=O)O)C(=O)N[C@@H](CCC(N)=O)C(=O)N[C@H](C(=O)N[C@@H](CC(C)C)C(=O)N[C@@H](C)C(=O)N[C@@H](Cc1c[nH]cn1)C(=O)N[C@H](C(N)=O)C(C)C)[C@@H](C)CC)[C@@H](C)CC)[C@@H](C)CC)C(C)C)C(C)C [compound 366] (H-IVLSLDVPIGLLQILLEKAAAEAEAAAKAAQEQILAHV-NH2)
CRF2R
  EC50: ≥ 100 nM
CRF1R
  EC50: ≥ 1000 nM

## CC[C@H](C)[C@H](N)C(=O)N[C@H](C(=O)N[C@@H](CC(C)C)C(=O)N[C@@H](CO)C(=O)N[C@@H](CC(C)C)C(=O)N[C@@H](CC(=O)O)C(=O)N[C@H](C(=O)N1CCC[C@H]1C(=O)N[C@H](C(=O)NCC(=O)N[C@@H](CC(C)C)C(=O)N[C@@H](CC(C)C)C(=O)N[C@@H](CCC(N)=O)C(=O)N[C@H](C(=O)N[C@@H](CC(C)C)C(=O)N[C@@H](CC(C)C)C(=O)N[C@@H](CCC(=O)O)C(=O)N[C@@H](CCC(N)=O)C(=O)N[C@@H](C)C(=O)N[C@@H](CCCNC(=N)N)C(=O)N[C@@H](Cc1c[nH]cn1)C(=O)N[C@@H](C)C(=O)N[C@@H](Cc1c[nH]cn1)C(=O)N[C@@H](C)C(=O)N[C@@H](Cc1c[nH]cn1)C(=O)N[C@@H](C)C(=O)N[C@@H](Cc1c[nH]cn1)C(=O)N[C@@H](C)C(=O)N[C@@H](Cc1c[nH]cn1)C(=O)N[C@@H](C)C(=O)N[C@@H](CCC(N)=O)C(=O)N[C@@H](C)C(=O)N[C@@H](Cc1c[nH]cn1)C(=O)N[C@H](C(=O)N[C@@H](CC(C)C)C(=O)N[C@@H](C)C(=O)N[C@@H](Cc1c[nH]cn1)C(=O)N[C@H](C(N)=O)C(C)C)[C@@H](C)CC)[C@@H](C)CC)[C@@H](C)CC)C(C)C)C(C)C [compound 369] (H-IVLSLDVPIGLLQILLEQARHAHAHAHAHAQAHILAHV-NH2)
CRF2R
  EC50: ≥ 100 nM
CRF1R
  EC50: ≥ 1000 nM
